The values below come from patent US11166959B2, “Isofuranone compounds useful as HPK1 inhibitors” (BRISTOL-MYERS SQUIBB COMPANY, priority 2017, dated 2021).

A word on the IC50: it is the concentration at which inhibition is half-maximal.

Where only a bound is given, the exact number is not on record here.

The target in one assay is T1, HPK1 (Homo sapiens, UniProt Q92918).
T1 construct: purchased SignalChem M23-11G
T1 sequence (Q92918 1-346 limits assumed): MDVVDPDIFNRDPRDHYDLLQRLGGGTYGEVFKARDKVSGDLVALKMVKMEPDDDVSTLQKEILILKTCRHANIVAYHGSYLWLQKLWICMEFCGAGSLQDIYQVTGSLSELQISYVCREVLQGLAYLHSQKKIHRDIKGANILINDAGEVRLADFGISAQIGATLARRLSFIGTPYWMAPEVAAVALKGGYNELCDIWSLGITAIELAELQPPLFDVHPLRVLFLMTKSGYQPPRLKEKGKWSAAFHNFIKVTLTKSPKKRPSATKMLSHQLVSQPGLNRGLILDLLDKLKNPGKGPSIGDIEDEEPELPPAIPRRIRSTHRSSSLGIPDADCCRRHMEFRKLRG
Briefly: HPK1 Inhibition Assay (kinase reaction, Caliper capillary electrophoresis). Format: biochemical. The note with it: for IC50: 0.625 nM HPK1, 22 μM ATP, 11 concentrations, read-out: HPK1 IC50; for IRAK4/HPK1 Ratio: ratio of the IRAK4 IC50 value to the HPK1 IC50 value. In outline:
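Kinase reactions ran 3 h and were stopped with 1 mM EDTA, with enzyme level and time set for at most 20-30% peptide substrate conversion. Phosphorylated and unphosphorylated peptide were separated by capillary electrophoresis to measure conversion. IC50 derived from 11 compound concentrations.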

Another assay concerns the target T2, IRAK4 (Homo sapiens, UniProt Q9NWZ3).
T2 construct: 1 nM IRAK4 (160-460); purchased SignalChem M24016
T2 sequence (Q9NWZ3 160-460): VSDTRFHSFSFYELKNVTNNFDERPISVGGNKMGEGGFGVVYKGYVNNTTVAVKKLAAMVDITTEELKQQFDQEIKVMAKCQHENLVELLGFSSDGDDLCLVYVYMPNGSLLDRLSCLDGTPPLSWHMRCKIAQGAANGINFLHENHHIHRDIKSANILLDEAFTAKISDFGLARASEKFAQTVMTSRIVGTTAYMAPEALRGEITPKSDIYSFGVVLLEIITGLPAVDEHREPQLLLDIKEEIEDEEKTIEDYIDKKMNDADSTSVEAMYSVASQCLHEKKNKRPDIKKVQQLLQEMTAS
Briefly: IRAK4 Inhibition Assay (kinase reaction, Caliper capillary electrophoresis). Format: biochemical. The note with it: 500 μM ATP, 11 concentrations.

As for `CC1(C)OC(=O)c2ccc(Nc3cc(NCc4cccnc4)c(-c4nc(C56CCN(CC5)CC6)no4)cn3)nc21` [Example 85, 2-{[5-(3-{1-azabicyclo[2.2.2]octan-4-yl}-1,2,4-oxadiazol-5-yl)-4-{[(pyridin-3-yl)methyl]amino}pyridin-2-yl]amino}-7,7-dimethyl-5H,7H-furo[3,4-b]pyridin-5-one], on HPK1, the IC50 is less than 50 nM and the “IRAK4/HPK1 Ratio” value is “C (C=>50)”. At IRAK4, this compound came in with an IC50 of 250 to 1000 nM.
For `CC1(C)OC(=O)c2ccc(Nc3cc(N[C@H](CO)c4ccccc4)c(-c4nnc(C5CC5)o4)cn3)nc21` [Example 86, 2-{[5-(5-cyclopropyl-1,3,4-oxadiazol-2-yl)-4-{[(1S)-2-hydroxy-1-phenylethyl]amino}pyridin-2-yl]amino}-7,7-dimethyl-5H,7H-furo[3,4-b]pyridin-5-one], in that order: less than 50 nM, “B (B=10 to 50)” and 50 to 250 nM.
For `O=C1OC2(CCCC2)c2nc(Nc3cc(N[C@H](CO)c4ccccc4)c(-c4nc(C5CC5)no4)cn3)ccc21` [Example 87, (S)-2′-((5-(3-cyclopropyl-1,2,4-oxadiazol-5-yl)-4-((2-hydroxy-1-phenylethyl)amino)pyridin-2-yl)amino)-5′H-spiro[cyclopentane-1,7′-furo[3,4-b]pyridin]-5′-one], in that order: less than 50 nM, “B (B=10 to 50)” and 50 to 250 nM.
For `CC1(C)OC(=O)c2ccc(Nc3cc(N[C@H](CO)c4ccccc4)c(-c4nnc(C5(C#N)CC5)o4)cn3)nc21` [Example 88, 1-{5-[6-({7,7-dimethyl-5-oxo-5H,7H-furo[3,4-b]pyridin-2-yl}amino)-4-{[(1S)-2-hydroxy-1-phenylethyl]amino}pyridin-3-yl]-1,3,4-oxadiazol-2-yl}cyclopropane-1-carbonitrile], in that order: less than 50 nM, “C (C=>50)” and 250 to 1000 nM.
